One data set concerns NUGC-3_KO_p53i. As to the kind of experiment: p53 pathway gene profiling, doxycycline-induced WT p53. The conditions noted are these: doxycycline 50 ng/ml. The class given is cell-based, human.
A short description of data set [1]: Compound 2 and metabolites in rat plasma, 50 mg/kg PO QD×10. Format: in vivo. The settings on record: for % of Parent / AUC0-24 / AUC0-last: rat; for Average Concentration: rat plasma. As to the method: The proposed metabolite pathway was determined in vitro, and levels of potential metabolites were measured by LC/MS-MS in rat plasma remaining from the dose rising 10-day repeat dose study in rats. Six potential metabolites were quantified in the low (50 mg/kg) single dose rats. […] Rats were rotated between timepoints to form a composite PK curve. […] A 100 μL aliquot of the supernatant was transferred to the sample plate and mixed with 100 μL of water, then the plate was shaken at 800 rpm for 10 min. 0.5-2 μL supernatant was then injected into a Triple Quad 6500+ for LC-MS/MS analysis. The standard curve was generated at 1-3000 ng/mL for the compounds in rat plasma (EDTA-K2).
The male and female PK parameters were averaged together since there was <2-fold variation between the genders. All values deemed below the level of quantification (BLQ) were excluded from the PK parameters calculations.

The mark [2] stands for this setting: n=3, * basal expression level is low.
Setting [3] is: Compound 2 50 mg/kg PO QD×1, 1 h, 50 mg/kg.
[4] abbreviates: Compound 2 50 mg/kg PO QD×1, 2 h, 50 mg/kg.
The mark [5] stands for this setting: Compound 2 50 mg/kg PO QD×1, 4 h, 50 mg/kg.
[6] abbreviates: Compound 2 50 mg/kg PO QD×1, 8 h, 50 mg/kg.
The mark [7] stands for this setting: Compound 2 50 mg/kg PO QD×1, 24 h, 50 mg/kg.
[8] abbreviates: Compound 2 50 mg/kg PO QD×10, 1 h post tenth dose, 50 mg/kg.
Where [9] appears, read: Compound 2 50 mg/kg PO QD×10, 2 h post tenth dose, 50 mg/kg.
Setting [10] is: Compound 2 50 mg/kg PO QD×10, 4 h post tenth dose, 50 mg/kg.
[11] abbreviates: Compound 2 50 mg/kg PO QD×10, 8 h post tenth dose, 50 mg/kg.
The mark [12] stands for this setting: Compound 2 50 mg/kg PO QD×10, 24 h post tenth dose, 50 mg/kg.
The mark [13] stands for this setting: Compound 2 50 mg/kg PO QD×10, 48 h post tenth dose, 50 mg/kg.
[14] abbreviates: Compound 2 50 mg/kg PO QD×10, 72 h post tenth dose.
Setting [15] is: Compound 2 50 mg/kg PO QD×10, 96 h post tenth dose.
[16] abbreviates: Day 1, of Compound 2 AUC0-24, 50 mg/kg PO.
The mark [17] stands for this setting: Day 10, of Compound 2 AUC0-last, 50 mg/kg PO QD×10.
[18] abbreviates: Day 10, Compound 2 50 mg/kg PO QD×10.
[19] abbreviates: Compound 2 50 mg/kg PO QD×1, 1 h.
Where [20] appears, read: Compound 2 50 mg/kg PO QD×1, 2 h.
Setting [21] is: Compound 2 50 mg/kg PO QD×1, 4 h.
The mark [22] stands for this setting: Compound 2 50 mg/kg PO QD×1, 8 h.
The mark [23] stands for this setting: Compound 2 50 mg/kg PO QD×1, 24 h.
The mark [24] stands for this setting: Compound 2 50 mg/kg PO QD×10, 1 h post tenth dose.
Setting [25] is: Compound 2 50 mg/kg PO QD×10, 2 h post tenth dose.
Where [26] appears, read: Compound 2 50 mg/kg PO QD×10, 4 h post tenth dose.
The mark [27] stands for this setting: Compound 2 50 mg/kg PO QD×10, 8 h post tenth dose.
The mark [28] stands for this setting: Compound 2 50 mg/kg PO QD×10, 24 h post tenth dose.
Setting [29] is: Compound 2 50 mg/kg PO QD×10, 48 h post tenth dose.

Values joined by “and” are separate entries in the source; they are usually repeats but may differ in a detail not shown here. Equal values may be shown once.

Consider `C[C@H]1c2cccc(O)c2C(=O)C2=C(O)[C@]3(O)C(=O)C(C(N)=O)=C(O)[C@@H](N(C)C)[C@@H]3[C@@H](O)[C@@H]21` [Doxycycline], for which, in the data set with NUGC-3_KO_p53i (n=3), the APAF1 fold change amounted to 2.40 ± 0.16 fold, the BAX fold change turned out to be 2.85 ± 0.08 fold, the BBC3 fold change is on record as 2.46 ± 0.06 fold and the BIRC5 fold change amounted to 0.52 ± 0.03 fold. Also, in the data set with NUGC-3_KO_p53i (n=3), the BRCA1 fold change is reported as 0.67 ± 0.03 fold, the BRCA2 fold change is listed as 0.74 ± 0.02 fold, the CCNB1 fold change came to 0.57 ± 0.01 fold and the “CCNE 1 fold change” value turned out to be 0.70 ± 0.01 fold. In the data set on NUGC-3_KO_p53i (n=3), the “CCNG 1 fold change” value is given as 1.65 ± 0.05 fold, the CDC25A fold change came out at 0.61 ± 0.04 fold, the CDC25C fold change is on record as 0.58 ± 0.02 fold and the CDK1 fold change is listed as 0.71 ± 0.01 fold. Also, in the data set with NUGC-3_KO_p53i (n=3), the CDKN1A fold change stood at 37.37 ± 0.55 fold, the CHEK1 fold change is reported as 0.71 ± 0.02 fold, the CHEK2 fold change is listed as 0.74 ± 0.01 fold and the DNMT1 fold change is 0.78 ± 0.03 fold. In the data set with NUGC-3_KO_p53i (n=3), the E2F1 fold change turned out to be 0.63 ± 0.02 fold, the FAS fold change is 7.34 ± 0.04 fold, the GADD45A fold change was found to be 3.68 ± 0.20 fold and the MDM2 fold change amounted to 12.97 ± 0.29 fold. In addition, in the data set with NUGC-3_KO_p53i (n=3), the MSH2 fold change was found to be 0.70 ± 0.02 fold, the PIDD1 fold change was 2.75 ± 0.05 fold, the PPM1D fold change is 2.21 ± 0.10 fold and the PRC1 fold change amounted to 0.64 ± 0.01 fold. In the data set on NUGC-3_KO_p53i (n=3), the SESN2 fold change is on record as 2.50 ± 0.12 fold, the TNFRSF10B fold change was found to be 1.88 ± 0.04 fold, the TNFRSF10D fold change stood at 2.73 ± 0.04 fold and the TP53 fold change is on record as 25.95 ± 0.84 fold. Moreover, in the data set with NUGC-3_KO_p53i (setting [2]), the “BTG2* fold change” value is on record as 27.82 ± 2.42 fold, the “EGR1* fold change” value was 4.40 ± 0.50 fold and the “IL6* fold change” value worked out at 1.23 ± 0.01 fold.
In the case of `CCn1c(C#CCNc2ccc(C)nc2)cc2cc(CNC3CCOCC3)ccc21` [Compound 8, 3-{1-Ethyl-5-[(tetrahydro-2H-pyran-4-ylamino)methyl]-1H-indol-2-yl}-1-(6-methyl-3-pyridylamino)-2-propyne], the “calculated concentration in rat plasma (individual rats)” value (shortened to “calculated concentration in rat plasma”) in data set [1] (setting [3]) is 28.5 ng/mL and 16.5 ng/mL and 13.4 ng/mL and 8.05 ng/mL and 22.8 ng/mL and 22.6 ng/mL; in data set [1] (setting [4]), 88.9 ng/mL and 36.3 ng/mL and 32.5 ng/mL and 78.0 ng/mL and 62.0 ng/mL and 51.5 ng/mL; in data set [1] (setting [5]) it was 84.8 ng/mL and 81.1 ng/mL and 34.9 ng/mL and 38.5 ng/mL and 52.9 ng/mL and 58.3 ng/mL; in data set [1] (setting [6]), 77.5 ng/mL and 46.5 ng/mL and 86.3 ng/mL and 203 ng/mL and 87.6 ng/mL and 73.8 ng/mL; in data set [1] (setting [7]) it was 2.71 ng/mL and 1.20 ng/mL and 1.36 ng/mL and 2.31 ng/mL and 2.43 ng/mL and 1.25 ng/mL; in data set [1] (setting [8]), 16.5 ng/mL and 6.52 ng/mL and 10.4 ng/mL and 6.59 ng/mL and 46.7 ng/mL and 24.4 ng/mL. Also, the “calculated concentration in rat plasma” value in data set [1] (setting [9]) was 14.6 ng/mL and 17.1 ng/mL and 27.6 ng/mL and 38.9 ng/mL and 57.5 ng/mL and 24.2 ng/mL; in data set [1] (setting [10]), 39.0 ng/mL and 39.4 ng/mL and 22.5 ng/mL and 92.1 ng/mL and 65.1 ng/mL and 19.9 ng/mL; in data set [1] (setting [11]) it was 29.5 ng/mL and 35.5 ng/mL and 57.2 ng/mL and 121 ng/mL and 135 ng/mL and 67.6 ng/mL; in data set [1] (setting [12]), 1.63 ng/mL and 2.61 ng/mL and 2.12 ng/mL and 10.6 ng/mL and 7.70 ng/mL and 8.00 ng/mL; in data set [1] (setting [13]), “BLQ (4×) and 1.01 ng/mL and 1.21 ng/mL”; in data set [1] (setting [14]), “BLQ”. Also, in data set [1] (setting [15]), the “calculated concentration in rat plasma” value is given as “BLQ”. Moreover, the “% of Parent” value in data set [1] (setting [16]) was 1.6%; in data set [1] (setting [17]), 0.9%. Also, the AUC0-24 in data set [1] (Day 1, Compound 2 50 mg/kg PO) stood at 1254 ng·h/mL. Besides, in data set [1] (setting [18]), the AUC0-last amounted to 1021 ng·h/mL. The “Average Concentration” value amounted to 18.64 ng/mL in data set [1] (setting [19]); 58.20 ng/mL in data set [1] (setting [20]); 58.42 ng/mL in data set [1] (setting [21]); 95.78 ng/mL in data set [1] (setting [22]); 1.88 ng/mL in data set [1] (setting [23]); 18.52 ng/mL in data set [1] (setting [24]). The “Average Concentration” value in data set [1] (setting [25]) is on record as 29.98 ng/mL; in data set [1] (setting [26]) it was 46.33 ng/mL; in data set [1] (setting [27]), 74.30 ng/mL; in data set [1] (setting [28]), 5.44 ng/mL; in data set [1] (setting [29]), 1.11 ng/mL; in data set [1] (setting [14]), “BLQ”. For the same molecule, the “Average Concentration” value in data set [1] (setting [15]) is recorded as “BLQ”.
Consider `CCn1c(C#CCNc2ccc(F)cc2)cc2cc(CNC3CCOCC3)ccc21` [Compound 6, 3-{1-Ethyl-5-[(tetrahydro-2H-pyran-4-ylmino)methyl]-1H-indol-2-yl}-1-(p-fluorophenylamino)-2-propyne], for which, in data set [1] (in vivo, po, 50 mg/kg), the AUC0-24 is 377 ng·h/mL and the AUC0-last was 389 ng·h/mL.
Take `CCn1c(C#CCNc2ccccc2)cc2cc(CNCc3ccccc3)ccc21` [Compound 4, 1-Anilino-3-[5-(benzylaminomethyl)-1-ethyl-1H-indol-2-yl]-2-propyne]: the “calculated concentration in rat plasma” value in data set [1] (setting [3]) is 52.4 ng/mL and 34.7 ng/mL and 28.5 ng/mL and 58.3 ng/mL and 44.0 ng/mL and 31.4 ng/mL; in data set [1] (setting [4]), 98.8 ng/mL and 56.5 ng/mL and 57.4 ng/mL and 65.7 ng/mL and 58.2 ng/mL and 53.3 ng/mL; in data set [1] (setting [5]) it was 72.2 ng/mL and 73.2 ng/mL and 96.5 ng/mL and 63.9 ng/mL and 69.0 ng/mL and 74.3 ng/mL; in data set [1] (setting [6]), 86.8 ng/mL and 66.7 ng/mL and 79.4 ng/mL and 71.8 ng/mL and 72.4 ng/mL and 63.5 ng/mL; in data set [1] (setting [7]) it was 17.9 ng/mL and 11.4 ng/mL and 18.4 ng/mL and 24.0 ng/mL and 22.5 ng/mL and 13.1 ng/mL; in data set [1] (setting [8]) it was 48.8 ng/mL and 34.5 ng/mL and 45.1 ng/mL and 46.0 ng/mL and 64.9 ng/mL and 67.1 ng/mL. Besides, the “calculated concentration in rat plasma” value in data set [1] (setting [9]) is 42.8 ng/mL and 51.0 ng/mL and 62.7 ng/mL and 54.2 ng/mL and 59.7 ng/mL and 52.9 ng/mL; in data set [1] (setting [10]), 66.1 ng/mL and 54.7 ng/mL and 73.4 ng/mL and 93.1 ng/mL and 83.9 ng/mL and 58.7 ng/mL; in data set [1] (setting [11]) it was 53.2 ng/mL and 61.4 ng/mL and 69.2 ng/mL and 67.5 ng/mL and 73.1 ng/mL and 65.4 ng/mL; in data set [1] (setting [12]), 17.1 ng/mL and 29.4 ng/mL and 19.7 ng/mL and 38.9 ng/mL and 40.7 ng/mL and 40.1 ng/mL; in data set [1] (setting [13]) it was “BLQ and 1.97 ng/mL and 1.33 ng/mL and 4.63 ng/mL and 2.28 ng/mL and 2.67 ng/mL”; in data set [1] (setting [14]), “BLQ”. The “calculated concentration in rat plasma” value in data set [1] (setting [15]) is listed as “BLQ”. The results for the “% of Parent” value in data set [1] (setting [16]) and in data set [1] (setting [17]) were 1.6% and 1.5%, respectively. Further, in data set [1] (Day 1, Compound 2 50 mg/kg PO), the AUC0-24 came out at 1241 ng·h/mL. Moreover, in data set [1] (setting [18]), the AUC0-last was found to be 1620 ng·h/mL. Also, the “Average Concentration” value in data set [1] (setting [19]) was 41.55 ng/mL; in data set [1] (setting [20]) it was 64.98 ng/mL; in data set [1] (setting [21]), 74.85 ng/mL; in data set [1] (setting [22]), 73.43 ng/mL; in data set [1] (setting [23]), 17.88 ng/mL; in data set [1] (setting [24]), 51.07 ng/mL. Also, the “Average Concentration” value in data set [1] (setting [25]) is 53.88 ng/mL; in data set [1] (setting [26]), 71.65 ng/mL; in data set [1] (setting [27]), 64.97 ng/mL; in data set [1] (setting [28]), 30.98 ng/mL; in data set [1] (setting [29]) it was 2.58 ng/mL; in data set [1] (setting [14]) it was “BLQ”. For the same molecule, the “Average Concentration” value in data set [1] (setting [15]) is “BLQ”.

The record behind these values is patent US20230049952A1, “METHODS AND COMPOUNDS FOR RESTORING MUTANT P53 FUNCTION” (PMV Pharmaceuticals, Inc., priority 2020, published 2023).
